Results: patent publication US20240158446A1, “CYCLIC COMPOUND HAVING SELECTIVE INHIBITORY ACTION ON KRAS OVER HRAS AND NRAS” (CHUGAI SEIYAKU KABUSHIKI KAISHA, priority 2021, published 2024)
*1 amine or outer side, *2 acyl side, *3 side chain or, on linkers, in order; H or OH if unused. Where a SMILES comes first, the peptide text is derived from it. Bridges are numbered along the chain shown (N, C = ends). [ ]: non-standard residue; d: D form. The star is where a group is joined. hPhe(3-Cl-4-CF3) = N[C@@H](CCc1ccc(C(F)(F)F)c(Cl)c1)C(=O)O; NPrPhe(4-CF3) = CCCN[C@@H](Cc1ccc(C(F)(F)F)cc1)C(=O)O; X18 = Cc1ccc(C[C@@H](C(=O)[*:2])N(CC(C)C)[*:1])cc1; X21 = Cc1ccc(C[C@@H](C(=O)[*:2])N(CC2CC2)[*:1])cc1; NPrPhe(4-Me) = CCCN[C@@H](Cc1ccc(C)cc1)C(=O)O; NEtPhe(4-Me) = CCN[C@@H](Cc1ccc(C)cc1)C(=O)O; NMePhe(4-Me) = CN[C@@H](Cc1ccc(C)cc1)C(=O)O; X3 = CCCN([C@H](C(=O)[*:2])C1CCCC1)[*:1]; NMeGly(cPent) = CN[C@H](C(=O)O)C1CCCC1; NMeD = CN[C@@H](CC(=O)O)C(=O)O; NMeL = CN[C@@H](CC(C)C)C(=O)O; Morpholide = C1CN(*)CCO1; NMeA = CN[C@@H](C)C(=O)O; NMeAib = CNC(C)(C)C(=O)O; Nle = CCCC[C@H](N)C(=O)O; Piperidide = C1CCN(*)CC1; Ac5c = NC1(C(=O)O)CCCC1; Aze = O=C(O)[C@@H]1CCN1; NEtG = CCNCC(=O)O; Sar = CNCC(=O)O

What was measured:
[1] = molecular target: GDP-bound KRAS wild-type protein (Homo sapiens, UniProt P01116); assay: Binding to KRAS by surface plasmon resonance (SPR), Single Cycle Kinetics; conditions: SPR Single Cycle Kinetics, GDP-bound KRAS wild-type protein, 1:1 binding model; read-out: KRAS KD
Chain of GDP-bound KRAS wild-type protein (P01116 whole entry): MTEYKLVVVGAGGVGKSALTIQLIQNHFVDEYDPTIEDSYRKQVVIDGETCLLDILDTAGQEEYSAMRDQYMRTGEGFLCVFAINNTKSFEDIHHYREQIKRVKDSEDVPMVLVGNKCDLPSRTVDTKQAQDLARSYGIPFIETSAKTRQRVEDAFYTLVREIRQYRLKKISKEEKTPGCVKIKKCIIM

[2] = molecular target: GDP-bound NRAS wild-type protein (Homo sapiens, UniProt P01111); assay: Binding to NRAS by surface plasmon resonance (SPR), Single Cycle Kinetics; conditions: SPR, GDP-bound NRAS wild-type protein vs GDP-bound KRAS wild-type protein
Chain of GDP-bound NRAS wild-type protein (P01111 whole entry): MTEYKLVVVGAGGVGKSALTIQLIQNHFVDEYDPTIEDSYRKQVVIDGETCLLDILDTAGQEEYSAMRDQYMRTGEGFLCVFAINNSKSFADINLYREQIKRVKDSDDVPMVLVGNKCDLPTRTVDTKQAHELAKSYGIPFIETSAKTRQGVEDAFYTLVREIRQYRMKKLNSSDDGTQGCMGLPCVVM

[3] = molecular target: GDP-bound HRAS wild-type protein (Homo sapiens, UniProt P01112); assay: Binding to HRAS by surface plasmon resonance (SPR), Single Cycle Kinetics; conditions: SPR, GDP-bound HRAS wild-type protein vs GDP-bound KRAS wild-type protein
Chain of GDP-bound HRAS wild-type protein (P01112 whole entry): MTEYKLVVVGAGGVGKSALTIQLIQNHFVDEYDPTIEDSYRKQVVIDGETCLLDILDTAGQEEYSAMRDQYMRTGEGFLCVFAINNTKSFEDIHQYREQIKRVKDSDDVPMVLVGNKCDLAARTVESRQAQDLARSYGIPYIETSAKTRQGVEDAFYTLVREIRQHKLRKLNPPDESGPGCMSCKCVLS

Row | SMILES | Kd [1] [nM] | NRAS/KRAS (ratio of KD value for NRAS to KD value for KRAS) [2] | HRAS/KRAS (ratio of KD value for HRAS to KD value for KRAS) [3]
1 | CC[C@H](C)[C@@H]1NC(=O)[C@H](CC(C)C)N(C)C(=O)C[C@@H](C(=O)N2CCOCC2)N(C)C(=O)[C@H](CC(C)C)N(C)C(=O)C2(CCCC2)NC(=O)[C@@H]2CCCN2C(=O)[C@H](CCc2ccc(C(F)(F)F)c(Cl)c2)NC(=O)CN(C)C(=O)[C@H](Cc2ccc(C)cc2)N(CC)C(=O)CN(C)C(=O)CN(C)C1=O [PP0045] ([NMeL]I[Sar][Sar][NEtPhe(4-Me)][Sar][hPhe(3-Cl-4-CF3)]P[Ac5c][NMeL][NMeD]-Morpholide; lactam N-11) | 2.3 | C (A compound having a KD ratio of 0.1 or more and less than 3 is denoted as C) | C (A compound having a KD ratio of 0.1 or more and less than 3 is denoted as C)
2 | CCCC[C@@H]1NC(=O)[C@H](CCc2ccc(C(F)(F)F)c(Cl)c2)NC(=O)CN(C)C(=O)[C@H](Cc2ccc(C)cc2)N(C)C(=O)[C@@H]2CCN2C(=O)[C@H](C)N(C)C(=O)[C@H]([C@@H](C)CC)NC(=O)[C@H](CC(C)C)N(C)C(=O)C[C@@H](C(=O)N2CCCCC2)N(C)C(=O)[C@H](CC(C)C)NC(=O)C(C)(C)N(C)C1=O [PP0047] ([NMeL]I[NMeA][Aze][NMePhe(4-Me)][Sar][hPhe(3-Cl-4-CF3)][Nle][NMeAib]L[NMeD]-Piperidide; lactam N-11) | 18 | C (A compound having a KD ratio of 0.1 or more and less than 3 is denoted as C) | C (A compound having a KD ratio of 0.1 or more and less than 3 is denoted as C)
3 | CCCC[C@@H]1NC(=O)[C@H](CCc2ccc(C(F)(F)F)c(Cl)c2)NC(=O)CN(C)C(=O)[C@H](Cc2ccc(C)cc2)N(CC)C(=O)[C@@H]2CCN2C(=O)[C@H](C)N(C)C(=O)[C@H]([C@@H](C)CC)NC(=O)[C@H](CC(C)C)N(C)C(=O)C[C@@H](C(=O)N2CCCCC2)N(C)C(=O)[C@H](CC(C)C)NC(=O)C(C)(C)N(C)C1=O [PP0048] ([NMeL]I[NMeA][Aze][NEtPhe(4-Me)][Sar][hPhe(3-Cl-4-CF3)][Nle][NMeAib]L[NMeD]-Piperidide; lactam N-11) | 63 | C (A compound having a KD ratio of 0.1 or more and less than 3 is denoted as C) | C (A compound having a KD ratio of 0.1 or more and less than 3 is denoted as C)
4 | CCCC[C@@H]1NC(=O)[C@H](CCc2ccc(C(F)(F)F)c(Cl)c2)NC(=O)CN(C)C(=O)[C@H](Cc2ccc(C)cc2)N(C)C(=O)CN(C)C(=O)CN(C)C(=O)[C@H]([C@@H](C)CC)NC(=O)[C@H](CC(C)C)N(C)C(=O)C[C@@H](C(=O)N2CCCCC2)N(C)C(=O)[C@H](CC(C)C)NC(=O)C(C)(C)N(C)C1=O [PP0049] ([NMeL]I[Sar][Sar][NMePhe(4-Me)][Sar][hPhe(3-Cl-4-CF3)][Nle][NMeAib]L[NMeD]-Piperidide; lactam N-11) | 6.3 | C (A compound having a KD ratio of 0.1 or more and less than 3 is denoted as C) | C (A compound having a KD ratio of 0.1 or more and less than 3 is denoted as C)
5 | CCCN1C(=O)[C@@H]2CCN2C(=O)[C@H](C)N(C)C(=O)[C@H]([C@@H](C)CC)NC(=O)[C@H](CC(C)C)N(C)C(=O)C[C@@H](C(=O)N2CCOCC2)N(C)C(=O)[C@H](C2CCCC2)N(C)C(=O)C2(CCCC2)NC(=O)[C@@H]2CCCN2C(=O)[C@H](CCc2ccc(C(F)(F)F)c(Cl)c2)NC(=O)CN(C)C(=O)[C@@H]1Cc1ccc(C)cc1 [PP0052] ([NMeL]I[NMeA][Aze][NPrPhe(4-Me)][Sar][hPhe(3-Cl-4-CF3)]P[Ac5c][NMeGly(cPent)][NMeD]-Morpholide; lactam N-11) | 0.12 | C (A compound having a KD ratio of 0.1 or more and less than 3 is denoted as C) | B (a compound having 3 or more and less than 10 is denoted as B)
6 | CCCN1C(=O)[C@@H]2CCN2C(=O)[C@H](C)N(C)C(=O)[C@H]([C@@H](C)CC)NC(=O)[C@H](CC(C)C)N(C)C(=O)C[C@@H](C(=O)N2CCOCC2)N(C)C(=O)[C@H](C2CCCC2)N(C)C(=O)C2(CCCC2)NC(=O)[C@@H]2CCCN2C(=O)[C@H](CCc2ccc(C(F)(F)F)c(Cl)c2)NC(=O)CN(C)C(=O)[C@@H]1Cc1ccc(C(F)(F)F)cc1 [PP0053] ([NMeL]I[NMeA][Aze][NPrPhe(4-CF3)][Sar][hPhe(3-Cl-4-CF3)]P[Ac5c][NMeGly(cPent)][NMeD]-Morpholide; lactam N-11) | 0.12 | C (A compound having a KD ratio of 0.1 or more and less than 3 is denoted as C) | C (A compound having a KD ratio of 0.1 or more and less than 3 is denoted as C)
7 | CC[C@H](C)[C@@H]1NC(=O)[C@H](CC(C)C)N(C)C(=O)C[C@@H](C(=O)N2CCOCC2)N(C)C(=O)[C@H](C2CCCC2)N(C)C(=O)C2(CCCC2)NC(=O)[C@@H]2CCCN2C(=O)[C@H](CCc2ccc(C(F)(F)F)c(Cl)c2)NC(=O)CN(C)C(=O)[C@H](Cc2ccc(C)cc2)N(CC(C)C)C(=O)[C@@H]2CCN2C(=O)[C@H](C)N(C)C1=O [PP0056] ([NMeL]I[NMeA][Aze][X18][Sar][hPhe(3-Cl-4-CF3)]P[Ac5c][NMeGly(cPent)][NMeD]-Morpholide; lactam N-11) | 2.9 | C (A compound having a KD ratio of 0.1 or more and less than 3 is denoted as C) | B (a compound having 3 or more and less than 10 is denoted as B)
8 | CC[C@H](C)[C@@H]1NC(=O)[C@H](CC(C)C)N(C)C(=O)C[C@@H](C(=O)N2CCOCC2)N(C)C(=O)[C@H](C2CCCC2)N(C)C(=O)C2(CCCC2)NC(=O)[C@@H]2CCCN2C(=O)[C@H](CCc2ccc(C(F)(F)F)c(Cl)c2)NC(=O)CN(C)C(=O)[C@H](Cc2ccc(C)cc2)N(CC2CC2)C(=O)[C@@H]2CCN2C(=O)[C@H](C)N(C)C1=O [PP0057] ([NMeL]I[NMeA][Aze][X21][Sar][hPhe(3-Cl-4-CF3)]P[Ac5c][NMeGly(cPent)][NMeD]-Morpholide; lactam N-11) | 0.21 | C (A compound having a KD ratio of 0.1 or more and less than 3 is denoted as C) | B (a compound having 3 or more and less than 10 is denoted as B)
9 | CCCN1C(=O)[C@@H]2CCN2C(=O)[C@H](C)N(C)C(=O)[C@H]([C@@H](C)CC)NC(=O)[C@H](CC(C)C)N(C)C(=O)C[C@@H](C(=O)N2CCOCC2)N(C)C(=O)[C@H](C2CCCC2)N(C)C(=O)C2(CCCC2)NC(=O)[C@@H]2CCCN2C(=O)[C@H](CCc2ccc(C(F)(F)F)c(Cl)c2)NC(=O)CN(CC)C(=O)[C@@H]1Cc1ccc(C)cc1 [PP0058] ([NMeL]I[NMeA][Aze][NPrPhe(4-Me)][NEtG][hPhe(3-Cl-4-CF3)]P[Ac5c][NMeGly(cPent)][NMeD]-Morpholide; lactam N-11) | 2 | C (A compound having a KD ratio of 0.1 or more and less than 3 is denoted as C) | C (A compound having a KD ratio of 0.1 or more and less than 3 is denoted as C)
10 | CCCN1C(=O)CN(C)C(=O)CN(C)C(=O)[C@H]([C@@H](C)CC)NC(=O)[C@H](CC(C)C)N(C)C(=O)C[C@@H](C(=O)N2CCOCC2)N(C)C(=O)[C@H](C2CCCC2)N(C)C(=O)C2(CCCC2)NC(=O)[C@@H]2CCCN2C(=O)[C@H](CCc2ccc(C(F)(F)F)c(Cl)c2)NC(=O)CN(C)C(=O)[C@@H]1Cc1ccc(C)cc1 [PP0059] ([NMeL]I[Sar][Sar][NPrPhe(4-Me)][Sar][hPhe(3-Cl-4-CF3)]P[Ac5c][NMeGly(cPent)][NMeD]-Morpholide; lactam N-11) | 0.15 | B (a compound having 3 or more and less than 10 is denoted as B) | C (A compound having a KD ratio of 0.1 or more and less than 3 is denoted as C)
11 | CCCN1C(=O)CN(C)C(=O)CN(C)C(=O)[C@H]([C@@H](C)CC)NC(=O)[C@H](CC(C)C)N(C)C(=O)C[C@@H](C(=O)N2CCOCC2)N(C)C(=O)[C@H](C2CCCC2)N(C)C(=O)C2(CCCC2)NC(=O)[C@@H]2CCCN2C(=O)[C@H](CCc2ccc(C(F)(F)F)c(Cl)c2)NC(=O)CN(C)C(=O)[C@@H]1Cc1ccc(C(F)(F)F)cc1 [PP0060] ([NMeL]I[Sar][Sar][NPrPhe(4-CF3)][Sar][hPhe(3-Cl-4-CF3)]P[Ac5c][NMeGly(cPent)][NMeD]-Morpholide; lactam N-11) | 0.099 | B (a compound having 3 or more and less than 10 is denoted as B) | B (a compound having 3 or more and less than 10 is denoted as B)
12 | CCCN1C(=O)CN(C)C(=O)CN(C)C(=O)[C@H]([C@@H](C)CC)NC(=O)[C@H](CC(C)C)N(C)C(=O)C[C@@H](C(=O)N2CCOCC2)N(C)C(=O)[C@H](C2CCCC2)N(C)C(=O)C2(CCCC2)NC(=O)[C@@H]2CCCN2C(=O)[C@H](CCc2ccc(C(F)(F)F)c(Cl)c2)NC(=O)CN(C)C(=O)[C@@H]1C1CCCC1 [PP0061] ([NMeL]I[Sar][Sar][X3][Sar][hPhe(3-Cl-4-CF3)]P[Ac5c][NMeGly(cPent)][NMeD]-Morpholide; lactam N-11) | 3.8 | B (a compound having 3 or more and less than 10 is denoted as B) | C (A compound having a KD ratio of 0.1 or more and less than 3 is denoted as C)
